# Measured values as given in PMC6429262, “Design and Synthesis of Novel Anti-Proliferative Emodin Derivatives and Studies on their Cell Cycle Arrest, Apoptosis Pathway and Migration” (Molecules, 2019).
# Test system: procaspase-9
# Assay: Western blot, procaspase-9
# Type: cell-based, human
# Conditions: 48 h
# Method: Total cell lysates from cultured HepG2 cells treated with different concentrations of compound 7a for 48 h were obtained by lysing the cells in ice-cold RIPA buffer (1 PBS, 1% NP-40, 0.5% sodium deoxycholate and 0.1% SDS) containing […] PMSF, 5 mg/mL aprotinin, 5 mg/mL leupeptin, 5 mg/mL pepstatin and […] NaF. After centrifugation at 12,000 rpm for 10 min, the protein in the supernatant was quantified by the Bradford method (BIO-RAD, Hercules, CA, USA) using a Multimode Varioscan instrument (Thermo Fischer Scientific, Waltham, MA, USA). Twenty micrograms of protein per lane was applied in 12% SDS polyacrylamide gel. After electrophoresis, the protein was transferred to a polyvinylidine difluoride membrane (Amersham Biosciences, Marlborough, MA, USA). The membrane was blocked at room temperature for 2 h in TBST containing 5% blocking powder (Santa Cruz, Dallas, TX, USA). The membrane was washed with TBST for 5 min, and the primary antibody was added and incubated at 4 °C overnight (O/N). Bax (5023, CST, Danvers, MA, USA), Bcl-2 (15071, CST), cytochrome c (4280, CST), procaspase-9 (AB138412, Abcam, Cambridge, MA, USA), procaspase-3 (AB32150, Abcam), caspase-3 (66470-2-lg, Proteintech Group, Rosemont, IL, USA) and GAPDH (AB8245, Abcam) antibodies were employed. After three TBST washes, the membrane was incubated with the corresponding horseradish peroxidase-labeled secondary antibody (1:5000) (Santa Cruz) at room temperature for 2 h. Membranes were washed with TBST for 15 min five times and the protein blots were visualized with chemiluminescence reagent (Thermo Fischer Scientific Ltd.). The X-ray films were developed with a developer and fixed with fixer solution. The grey levels were analyzed using ImageQuant LAS 4000 system (GE, Marlborough, MA, USA).
compound,measurement,setting,value
"Cc1cc(O)c2c(c1)C(=O)c1cc(OCCCOC(=O)[C@@H](C)N)cc(O)c1C2=O.O=C(O)C(F)(F)F [Compound 7a, (R)-1-(3-(4,5-Dihydroxy-7-methyl-9,10-dioxo-9,10-dihydroanthracen-2-yloxy)propoxy)-1-oxopropan-2-aminium 2,2,2-trifluoroacetate]","Relative expression level, procaspase-9","HepG2, 2.5 μM",0.600 ± 0.082
same,"Relative expression level, procaspase-9","HepG2, 5 μM",0.297 ± 0.058
same,"Relative expression level, procaspase-9","HepG2, 10 μM",0.223 ± 0.029
